Measured values published in article PMC12888861, “Antibacterial activity of enmetazobactam against Acinetobacter spp.: a molecular dissection of mechanism of action and resistance determinants” (Antimicrobial Agents and Chemotherapy, 2025).
In brackets after ≈: the same amount, converted by molar mass.

Tested on: carbapenem-resistant A. baumannii (CRAB) isolates (n = 67)
Assay: MIC, broth microdilution (EUCAST), carbapenem-resistant A. baumannii isolates
Assay type: cell-based, Acinetobacter baumannii
Settings: for MIC: Acinetobacter baumannii
From the text: The bacterial strains used in this study comprised 208 clinical isolates from the Spanish National Acinetobacter spp. 2020 Multicenter Collection, which was previously characterized in detail by our research group, including whole-genome sequencing, phylogenetics studies, clonal dynamics, and resistance mechanisms ([2], [29]). Additionally, a collection of A. baumannii ATCC 17978 transformants coding the blaOXA-23, blaOXA-24/40, blaOXA-51, blaOXA-58, blaOXA-143, and blaOXA-201 genes, previously constructed and described by our group ([30]), was used to determine the activity of enmetazobactam against strains carrying the main CHDLs of A. baumannii.
The antimicrobial susceptibility of the 208 Acinetobacter spp. isolates was assessed using the broth microdilution method, as described in the European Committee on Antimicrobial Susceptibility Testing (EUCAST) v.15 guidelines (http://www.eucast.org/clinical_breakpoints). […] MICs for enmetazobactam alone were assessed as well. […] Subsequently, MIC testing was also conducted with a collection of A. baumannii ATCC 17978 transformants expressing clinically relevant OXA-like carbapenemase genes.
The A. baumannii ATCC 19606 strain was used as the reference strain in all susceptibility experiments, in duplicate assays. Antibiotics were purchased from Sigma-Aldrich, except enmetazobactam and durlobactam, which were obtained from Advanz Pharma and MedChemExpress, respectively.

[1] = CHDLs-producing A. baumannii isolates (n = 67), durlobactam series, DUR fixed 4 mg/L in combinations

C[n+]1ccn(C[C@@]2(C)[C@H](C(=O)[O-])N3C(=O)C[C@H]3S2(=O)=O)n1 [enmetazobactam]
MIC (MBC set, isolate Ab4, A. baumannii ST 2, ADC-30, OXA-66, ISAba1-OXA-23): 64 µg/mL (≈ 204 µM) | MIC (MBC set, isolate Ab6, A. baumannii ST 2, ADC-30, OXA-66, ISAba1-OXA-23, TEM-12): 64 µg/mL (≈ 204 µM) | MIC (MBC set, isolate Ab9, A. baumannii ST 2, ADC-30, OXA-66, OXA-23, TEM-12): 8 µg/mL (≈ 25.5 µM) | MIC (isolate Ab56, ST 1, ADC-75, OXA-69, OXA-23, ETZ fixed 8 mg/L in combinations): 64 µg/mL | MIC (isolate Ab83, ST 25, ADC-5, OXA-64, OXA-23, DUR fixed at 4 mg/L in combinations): 64 µg/mL | MIC (isolate Ab83, ST 25, ADC-5, OXA-64, OXA-23, ETZ fixed 8 mg/L in combinations): 64 µg/mL | MIC (isolate Ab109, ST 1, ADC-75, OXA-69, OXA-23, DUR fixed at 4 mg/L in combinations): 32 µg/mL | MIC (isolate Ab109, ST 1, ADC-75, OXA-69, OXA-23, ETZ fixed 8 mg/L in combinations): 32 µg/mL | MIC (isolate Ab133, ST 2, ADC-30, OXA-66, OXA-58, TEM-12, DUR fixed at 4 mg/L in combinations): 8 µg/mL | MIC (isolate Ab133, ST 2, ADC-30, OXA-66, OXA-58, TEM-12, ETZ fixed 8 mg/L in combinations): 8 µg/mL | MIC (isolate Ab134, ST 2, ADC-30, OXA-66, OXA-58, TEM-12, DUR fixed at 4 mg/L in combinations): 8 µg/mL | MIC (isolate Ab134, ST 2, ADC-30, OXA-66, OXA-58, TEM-12, ETZ fixed 8 mg/L in combinations): 8 µg/mL | MIC (isolate Ab137, ST 85, ADC-2, OXA-94, OXA-23, DUR fixed at 4 mg/L in combinations): 64 µg/mL | MIC (isolate Ab137, ST 85, ADC-2, OXA-94, OXA-23, ETZ fixed 8 mg/L in combinations): 64 µg/mL | MIC (isolate Ab138, ST 745, ADC-30, OXA-66, OXA-58, DUR fixed at 4 mg/L in combinations): 64 µg/mL | MIC (isolate Ab138, ST 745, ADC-30, OXA-66, OXA-58, ETZ fixed 8 mg/L in combinations): 64 µg/mL | MIC (isolate Ab140, ST 85, ADC-2, OXA-94, OXA-23, DUR fixed at 4 mg/L in combinations): 64 µg/mL | MIC (isolate Ab140, ST 85, ADC-2, OXA-94, OXA-23, ETZ fixed 8 mg/L in combinations): 64 µg/mL | MIC (isolate Ab141, ST 745, ADC-30, OXA-66, OXA-58, DUR fixed at 4 mg/L in combinations): 8 µg/mL | MIC (isolate Ab141, ST 745, ADC-30, OXA-66, OXA-58, ETZ fixed 8 mg/L in combinations): 8 µg/mL | MIC (isolate Ab144, ST 745, ADC-30, OXA-66, OXA-58, DUR fixed at 4 mg/L in combinations): 32 µg/mL | MIC (isolate Ab144, ST 745, ADC-30, OXA-66, OXA-58, ETZ fixed 8 mg/L in combinations): 32 µg/mL | MIC (isolate Ab169, ST 2, ADC-30, OXA-66, OXA-23, DUR fixed at 4 mg/L in combinations): 32 µg/mL | MIC (isolate Ab169, ST 2, ADC-30, OXA-66, OXA-23, ETZ fixed 8 mg/L in combinations): 64 µg/mL | MIC (isolate Ab171, ST 2, ADC-30, OXA-66, OXA-23, DUR fixed at 4 mg/L in combinations): 32 µg/mL | MIC (isolate Ab171, ST 2, ADC-30, OXA-66, OXA-23, ETZ fixed 8 mg/L in combinations): 64 µg/mL | MIC (isolate Ab173, ST 2, ISAba1-ADC-30, OXA-66, OXA-23, DUR fixed at 4 mg/L in combinations): 64 µg/mL | MIC (isolate Ab173, ST 2, ISAba1-ADC-30, OXA-66, OXA-23, ETZ fixed 8 mg/L in combinations): 64 µg/mL | MIC (isolate Ab174, ST 2, ADC-30, OXA-66, OXA-23, DUR fixed at 4 mg/L in combinations): 64 µg/mL | MIC (isolate Ab174, ST 2, ADC-30, OXA-66, OXA-23, ETZ fixed 8 mg/L in combinations): 64 µg/mL | MIC (isolate Ab179, ST 2, ADC-30, OXA-66, OXA-23, DUR fixed at 4 mg/L in combinations): 64 µg/mL | MIC (isolate Ab179, ST 2, ADC-30, OXA-66, OXA-23, ETZ fixed 8 mg/L in combinations): 64 µg/mL | MIC (isolate Ab180, ST 2, ADC-30, OXA-66, OXA-24/40, DUR fixed at 4 mg/L in combinations): 32 µg/mL | MIC (isolate Ab180, ST 2, ADC-30, OXA-66, OXA-24/40, ETZ fixed 8 mg/L in combinations): 32 µg/mL | MIC (isolate Ab181, ST 2, ADC-30, OXA-66, OXA-23, DUR fixed at 4 mg/L in combinations): 32 µg/mL | MIC (isolate Ab181, ST 2, ADC-30, OXA-66, OXA-23, ETZ fixed 8 mg/L in combinations): 32 µg/mL | MIC (isolate Ab182, ST 2, ADC-30, OXA-66, OXA-23, DUR fixed at 4 mg/L in combinations): 16 µg/mL | MIC (isolate Ab182, ST 2, ADC-30, OXA-66, OXA-23, ETZ fixed 8 mg/L in combinations): 16 µg/mL | MIC (isolate Ab183, ST 2, ADC-30, OXA-66, OXA-23, DUR fixed at 4 mg/L in combinations): 32 µg/mL | MIC (isolate Ab183, ST 2, ADC-30, OXA-66, OXA-23, ETZ fixed 8 mg/L in combinations): 32 µg/mL | MIC (isolate Ab184, ST 2, ADC-30, OXA-66, OXA-23, DUR fixed at 4 mg/L in combinations): 32 µg/mL | MIC (isolate Ab184, ST 2, ADC-30, OXA-66, OXA-23, ETZ fixed 8 mg/L in combinations): 32 µg/mL | MIC (isolate Ab186, ST 2, ADC-30, OXA-66, OXA-23, DUR fixed at 4 mg/L in combinations): 32 µg/mL | MIC (isolate Ab186, ST 2, ADC-30, OXA-66, OXA-23, ETZ fixed 8 mg/L in combinations): 32 µg/mL | MIC (isolate Ab191, ST 2, ADC-30, OXA-66, OXA-23, DUR fixed at 4 mg/L in combinations): 64 µg/mL | MIC (isolate Ab191, ST 2, ADC-30, OXA-66, OXA-23, ETZ fixed 8 mg/L in combinations): 64 µg/mL | MIC (isolate Ab192, ST 2, ADC-30, OXA-66, OXA-23, DUR fixed at 4 mg/L in combinations): 32 µg/mL | MIC (isolate Ab192, ST 2, ADC-30, OXA-66, OXA-23, ETZ fixed 8 mg/L in combinations): 64 µg/mL | MIC (isolate Ab194, ST 2, ADC-30, OXA-66, OXA-23, DUR fixed at 4 mg/L in combinations): 64 µg/mL | MIC (isolate Ab194, ST 2, ADC-30, OXA-66, OXA-23, ETZ fixed 8 mg/L in combinations): 64 µg/mL | MIC (isolate Ab199, ST 2, ADC-30, OXA-66, OXA-23, DUR fixed at 4 mg/L in combinations): 32 µg/mL | MIC (isolate Ab199, ST 2, ADC-30, OXA-66, OXA-23, ETZ fixed 8 mg/L in combinations): 32 µg/mL | MIC (isolate Ab201, ST 2, ADC-30, OXA-66, OXA-23, DUR fixed at 4 mg/L in combinations): 64 µg/mL | MIC (isolate Ab201, ST 2, ADC-30, OXA-66, OXA-23, ETZ fixed 8 mg/L in combinations): 64 µg/mL | MIC (isolate Ab204, ST 2, ADC-30, OXA-66, OXA-23, DUR fixed at 4 mg/L in combinations): 32 µg/mL | MIC (isolate Ab204, ST 2, ADC-30, OXA-66, OXA-23, ETZ fixed 8 mg/L in combinations): 32 µg/mL | MIC50 [1]: 64 µg/mL | MIC90 [1]: 64 µg/mL | MIC distribution 0.12 (cumulative % of CHDLs-producing A. baumannii isolates (n = 67) at MIC 0.12 mg/L, DUR fixed 4 mg/L in combinations): 0.0% | MIC distribution 0.25 (cumulative % of CHDLs-producing A. baumannii isolates (n = 67) at MIC 0.25 mg/L, DUR fixed 4 mg/L in combinations): 0.0% | MIC distribution 0.5 (cumulative % of CHDLs-producing A. baumannii isolates (n = 67) at MIC 0.5 mg/L, DUR fixed 4 mg/L in combinations): 0.0% | MIC distribution 1 (cumulative % of CHDLs-producing A. baumannii isolates (n = 67) at MIC 1 mg/L, DUR fixed 4 mg/L in combinations): 0.0% | MIC distribution 2 (cumulative % of CHDLs-producing A. baumannii isolates (n = 67) at MIC 2 mg/L, DUR fixed 4 mg/L in combinations): 0.0% | MIC distribution 4 (cumulative % of CHDLs-producing A. baumannii isolates (n = 67) at MIC 4 mg/L, DUR fixed 4 mg/L in combinations): 10.4% | MIC distribution 8 (cumulative % of CHDLs-producing A. baumannii isolates (n = 67) at MIC 8 mg/L, DUR fixed 4 mg/L in combinations): 22.4% | MIC distribution 16 (cumulative % of CHDLs-producing A. baumannii isolates (n = 67) at MIC 16 mg/L, DUR fixed 4 mg/L in combinations): 25.4% | MIC distribution 32 (cumulative % of CHDLs-producing A. baumannii isolates (n = 67) at MIC 32 mg/L, DUR fixed 4 mg/L in combinations): 46.3% | MIC distribution ≤0.06 (cumulative % of CHDLs-producing A. baumannii isolates (n = 67) at MIC ≤0.06 mg/L, DUR fixed 4 mg/L in combinations): 0.0% | MIC distribution ≥64 (cumulative % of CHDLs-producing A. baumannii isolates (n = 67) at MIC ≥64 mg/L, DUR fixed 4 mg/L in combinations): 100% | MIC distribution 0.12 (cumulative share of CRAB isolates (n = 67) at MIC 0.12 mg/L, ETZ fixed 8 mg/L in combinations): 0 | MIC distribution 0.25 (cumulative share of CRAB isolates (n = 67) at MIC 0.25 mg/L, ETZ fixed 8 mg/L in combinations): 0 | MIC distribution 0.5 (cumulative share of CRAB isolates (n = 67) at MIC 0.5 mg/L, ETZ fixed 8 mg/L in combinations): 0 | MIC distribution 1 (cumulative share of CRAB isolates (n = 67) at MIC 1 mg/L, ETZ fixed 8 mg/L in combinations): 0 | MIC distribution 2 (cumulative share of CRAB isolates (n = 67) at MIC 2 mg/L, ETZ fixed 8 mg/L in combinations): 0 | MIC distribution 4 (cumulative share of CRAB isolates (n = 67) at MIC 4 mg/L, ETZ fixed 8 mg/L in combinations): 10.4 | MIC distribution 8 (cumulative share of CRAB isolates (n = 67) at MIC 8 mg/L, ETZ fixed 8 mg/L in combinations): 19.4 | MIC distribution 16 (cumulative share of CRAB isolates (n = 67) at MIC 16 mg/L, ETZ fixed 8 mg/L in combinations): 25.4 | MIC distribution 32 (cumulative share of CRAB isolates (n = 67) at MIC 32 mg/L, ETZ fixed 8 mg/L in combinations): 41.8 | MIC distribution 64 (cumulative share of CRAB isolates (n = 67) at MIC 64 mg/L, ETZ fixed 8 mg/L in combinations): 100 | MIC distribution ≤0.06 (cumulative share of CRAB isolates (n = 67) at MIC ≤0.06 mg/L, ETZ fixed 8 mg/L in combinations): 0
